Data taken from article PMC10721633 (Nature Communications, 2023).

B1: DnaA^104–446 (Bacillus subtilis DnaA lacking domains I-II; domains III-IV) (domain or fragment, UniProt P05648 104-446, looked up)
chain: SDFPQNMLNPKYTFDTFVIGSGNRFAHAASLAVAEAPAKAYNPLFIYGGVGLGKTHLMHAIGHYVIDHNPSAKVVYLSSEKFTNEFINSIRDNKAVDFRNRYRNVDVLLIDDIQFLAGKEQTQEEFFHTFNTLHEESKQIVISSDRPPKEIPTLEDRLRSRFEWGLITDITPPDLETRIAILRKKAKAEGLDIPNEVMLYIANQIDSNIRELEGALIRVVAYSSLINKDINADLAAEALKDIIPSSKPKVITIKEIQRVVGQQFNIKLEDFKAKKRTKSVAFPRQIAMYLSREMTDSSLPKIGEEFGGRDHTTVIHAHEKISKLLADDEQLQQHVKEIKEQLK
notes: also called DnaA1-7 (the seven protomers in the BUS complex); DnaA^ATP; source: E. coli BL21(DE3)-pLysS, purified (HisTrap, HiTrap Heparin, SUMO protease digestion, second HisTrap flow-through); not shown: His14, N-terminal, cleaved; SUMO, N-terminal, cleaved

Key:
[1] = target: T1, DnaA (Bacillus subtilis, UniProt P05648); assay: single-molecule TIRF DNA strand separation; assay type: biochemical; conditions: BUS DNA scaffold, 50 nM DnaA, 10 mM magnesium acetate, 100 mM potassium glutamate, pH 7.6
T1 construct: full length; His14-SUMO tag cleaved; E. coli BL21(DE3)-pLysS
T1 sequence (P05648 whole entry): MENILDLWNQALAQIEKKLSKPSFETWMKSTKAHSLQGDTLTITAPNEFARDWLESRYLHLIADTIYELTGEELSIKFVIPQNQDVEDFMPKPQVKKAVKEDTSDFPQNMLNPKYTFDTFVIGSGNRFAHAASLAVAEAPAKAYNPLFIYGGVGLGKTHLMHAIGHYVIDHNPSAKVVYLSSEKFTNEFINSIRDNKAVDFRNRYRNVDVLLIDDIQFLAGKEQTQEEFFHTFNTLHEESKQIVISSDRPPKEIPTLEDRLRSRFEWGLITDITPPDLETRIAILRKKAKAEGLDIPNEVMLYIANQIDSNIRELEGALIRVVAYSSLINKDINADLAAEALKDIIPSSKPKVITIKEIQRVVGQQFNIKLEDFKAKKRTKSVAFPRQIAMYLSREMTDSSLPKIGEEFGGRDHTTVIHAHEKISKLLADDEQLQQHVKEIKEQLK

[2] = target: T2, DnaA^104-446 (Bacillus subtilis, UniProt P05648); assay: cryo-EM structure; assay type: binding; conditions: BUS DNA scaffold, 2 uM ATP, 1 mM magnesium acetate, pH 7.5, 37 °C, glutaraldehyde crosslinked
T2 construct: domains III-IV, residues 104-446; His14-SUMO tag cleaved; E. coli BL21(DE3)-pLysS; heptamer on tailed BUS DNA, glutaraldehyde crosslinked

[3] = target: the molecule itself; assay: cryo-EM structure; 4 µM partially ssDNA scaffold with 40 µM DnaA^104–446 monomer, 10 mM HEPES pH 7.5, 100 mM potassium glutamate, 1 mM magnesium acetate, 2 µM ATP, 37 °C 10 min; cross-linked with 0.1% glutaraldehyde, multimeric complex isolated by SEC (Superdex 200); oligomer assembled on DNA

| Molecule | single-molecule TIRF DNA strand separation [1] | cryo-EM structure [2] | stoichiometry N [3] |
| --- | --- | --- | --- |
| Nc1ncnc2c1ncn2[C@@H]1O[C@H](COP(=O)(O)OP(=O)(O)OP(=O)(O)O)[C@@H](O)[C@H]1O [ATP] | The addition of DnaA^ATP to the immobilized DNA scaffolds stimulated a reduction in the number | The cryo-EM model reveals seven DnaA^ATP protomers (termed DnaA1-7) engaging the DNA scaffold |  |
| B1 |  |  | 7 |
